Patent US20050222266A1, “2-indanylamino derivatives for the therapy of chronic pain” (priority 2002, published 2005)
Counter-ions that a name gives are not always drawn.

Tests used:
[1] = tested on: formalin-induced licking and flinching; assay: mice paw formalin test, acute treatment; type: in vivo; settings: for Late phase licking/flinching time: 10 to 40 min; for Early phase licking/flinching time: first 5 min
Protocol: (§1) The mice paw formalin test was performed as described by Wheeler-Aceto et al. (Psychopharmacology 104:35-44, 1991). Briefly, the day before the formalin injection, mice were placed individually into clear plastic cylinders for 30 minutes of adaptation. The day of testing 20 μl of 1% formalin was injected into the plantar surface of the left hind paw and the animals were again placed into the plastic cylinder for the behavioural observation. The amount of time, in seconds, the animals spent licking and flinching (L/F) the injected paw for the first 5 min (early phase), and then from 10 to 40 min(late phase) after formalin injection, was used as measurement of intensity of pain. CHF 3381 10-100 mg/kg i.p. and 25-200 mg/kg p.o. or the corresponding vehicles, were administered 15 and 30 min before formalin injection, respectively.

[2] = tested on: formalin-induced licking and flinching; assay: mouse formalin test, 9 day treatment (tolerance); type: in vivo, mice
Protocol: as §1
Moreover, the formalin test was used to examine whether tolerance develops with respect to the antihyperalgesic effect of CHF 3381 after chronic treatment in comparison with the standard opioid morphine. Briefly, mice were divided randomly into five groups (12 mice per group) and administered once daily for 8 days as follows: three groups with saline i.p., one group with CHF 3381 60 mg/kg i.p. and one group with morphine 20 mg/kg i.p. On ninth day these groups were treated in following way: one saline pre-treated group was treated with saline i.p. (g1); two saline pre-treated group were treated with CHF 3381 30 mg/kg i.p. (g2) and with morphine 6 mg/kg i.p. (g3), respectively; the group pre-treated with CHF 3381 60 mg/kg was treated with CHF 3381 30 mg/kg i.p. (g4) and the group pre-treated with morphine 20 mg/kg was treated with morphine 6 mg/kg i.p.(g5), a dose that was previously shown to be active in the formalin test. CHF 3381 and morphine were administered 15 and 30 min before formalin injection, respectively.

[3] = tested on: formalin-induced flinching and licking behavior; assay: formalin model of inflammatory pain in rats; type: in vivo
[4] = tested on: acute pain, hot plate 51° C.; assay: hot-plate test, rats; type: in vivo; settings: 15 min
Protocol: The effect of CHF 3381 was studied in acute pain with hot-plate test described by Eddy et al (1953). The test was performed on an electrically heated and thermostatically controlled copper surface, set to a temperature of 55 or 51° C. with mice and rats, respectively.
The animals were confined to the hot plate by a transparent observation chamber and the latency to the response consisting of licking of the hind paws, was measured. A cut-off period of 60 sec was used to avoid tissue damage.
After i.p. administration, CHF 3381 (30-45-60 and 100 mg/kg in mouse; 30-37-45 and 60 mg/kg in rats), produced a significant and dose-dependent increase in the latency of the hindpaw licking response compared to vehicle-treated animals (Table 6).

rotarod test, mice = settings: mouse, in vivo, 15 min before test
Protocol: The side-effect profile of CHF 3381 was then evaluated in the rotarod test both in mice and rats. The day before the execution of the test, mice and rats were trained to maintain their equilibrium on the test apparatus. For mice, training consisted of 3 subsequent 2 min attempts on a rod rotating from 4.5 r.p.m. to 16.5 r.p.m.; for rats, of 3 subsequent 1 min attempts at 8 rpm (Kinnard and Carr, 1957). The morning of the test day, mice and rats were again tested on the rotarod and only animals able to maintain their equilibrium on the rod were retained for the experimental procedure. CHF 3381 was administered p.o. or i.p. to groups of at least 8 animals 15 min (time of peak effect for neurotoxicity) before the execution of the test. All controls received the corresponding vehicle. The number of mice falling during a 2-min test period and the number of rats falling for 3 subsequent 1-min attempts were used for the calculation of the respective doses at which 50% of the animals display neurotoxicity (TD50).

[5] = G2: 30 mg/kg i.p. on ninth day after 8 days saline
[6] = G4: 30 mg/kg i.p. on ninth day after 8 days CHF 3381 60 mg/kg i.p.

In the case of `NC(=O)CNC1Cc2ccccc2C1` [CHF 3381, N-2(indanyl)-glicinamide hydrochloride], the “Late phase licking/flinching time” value ([1]; 10 mg/kg i.p.) is reported as 165 ± 26 s, the “Early phase licking/flinching time” value ([1]; 10 mg/kg i.p.) is reported as 95 ± 8 s and the “Late phase licking/flinching time” value ([1]; 25 mg/kg p.o.) is reported as 92 ± 25 s. For the same molecule, the “Early phase licking/flinching time” value ([1]; 25 mg/kg p.o.) was 99 ± 8 s, the “Late phase licking/flinching time” value ([1]; 30 mg/kg i.p.) was 58 ± 1 s and the “Early phase licking/flinching time” value ([1]; 30 mg/kg i.p.) was 59 ± 9 s. For the same molecule, the “Late phase licking/flinching time” value ([1]; 50 mg/kg p.o.) was 30 ± 9 s, the “Early phase licking/flinching time” value ([1]; 50 mg/kg p.o.) was 72 ± 7 s and the “Late phase licking/flinching time” value ([1]; 60 mg/kg i.p.) was 17 ± 5 s. The “Early phase licking/flinching time” value ([1]; 60 mg/kg i.p.) was 32 ± 7 s, the “Late phase licking/flinching time” value ([1]; 100 mg/kg i.p.) was 2 ± 2 s and the “Early phase licking/flinching time” value ([1]; 100 mg/kg i.p.) was 17 ± 4 s. The “Late phase licking/flinching time” value ([1]; 100 mg/kg p.o.) was 23 ± 16 s, the “Early phase licking/flinching time” value ([1]; 100 mg/kg p.o.) was 46 ± 7 s and the “Late phase licking/flinching time” value ([1]; 200 mg/kg p.o.) was 12 ± 10 s. For the same molecule, the “Early phase licking/flinching time” value ([1]; 200 mg/kg p.o.) was 47 ± 4 s, the “acute and tonic formalin-induced licking response” value ([1]; mice, 100 mg/kg p.o. and 60 mg/kg i.p.) was “almost completely blocked” and the Early phase [2, 5] was 53 ± 8 s. The Late phase [2, 5] was 91 ± 21 s, the Early phase [2, 6] was 56 ± 6 s and the Late phase [2, 6] was 74 ± 21 s. For the same molecule, the “antihyperalgesic action after chronic treatment (tolerance)” value ([2]; once daily for 8 days, test on ninth day) was “lack of development of tolerance”, the “flinching and licking behavior during the early and late nociceptive phases” value [3] was “clearly suppressed” and the “latency of the hindpaw licking response” value ([4]; 30 mg/kg i.p.) was 22.44 ± 2.07 s. The “latency of the hindpaw licking response” value ([4]; 37 mg/kg i.p.) was 26.24 ± 2.22 s, the “latency of the hindpaw licking response” value ([4]; 45 mg/kg i.p.) was 39.59 ± 3.56 s and the “latency of the hindpaw licking response” value ([4]; 60 mg/kg i.p.) was 42.80 ± 3.27 s. It also gave a TD50 at 15 min (rotarod test, mice; ip, i.p. administration) of 96 mg/kg and a TD50 at 15 min (rotarod test, mice; oral administration) of 233 mg/kg.
